Data on 43 compounds can be found in the Deep4Chem optical property database.

The nature of this data set: solvent given as SMILES.
[1] abbreviates: in O=P(c1ccccc1)(c1ccccc1)c1ccccc1Oc1ccccc1P(=O)(c1ccccc1)c1ccccc1.

Values joined by “and” are separate entries in the source; they are usually repeats but may differ in a detail not shown here. Equal entries are not always repeated.

On to `CN(C)c1cc(C#N)c(N(C)C)c(C#N)c1`, for which the emission maximum (in C1CCCCC1) turned out to be 495.79 nm; the emission maximum (in C1CCOC1) was 518.13 nm; the emission maximum (in C1COCCO1) came to 521.65 nm; the emission maximum (in CC1COC(=O)O1) is on record as 532.48 nm; the emission maximum (in CC#N) stood at 529.94 nm; the emission maximum (in CC(C)=O) worked out at 524.93 nm. Moreover, the emission maximum was 503.02 nm (in CC(C)OC(C)C); 525.76 nm (in CCC#N); 493.58 nm (in CCC(C)C); 493.83 nm (in CCCCCC); 523.29 nm (in CCCCCCCCO); 505.82 nm (in CCCCCOCCCCC). The emission maximum stood at 516.8 nm (in CCCCOC(C)=O); 502.26 nm (in CCCCOCCCC); 507.61 nm (in CCCOCCC); 528.26 nm (in CCO); 519.21 nm (in CCOC(C)=O); 507.36 nm (in CCOCC). Besides, the emission maximum was determined as 533.9 nm (in CN(C)C=O); 530.5 nm (in CO); 538.21 nm (in CS(C)=O); 516.8 nm (in Cc1ccccc1); 523.56 nm (in ClCCCl); 522.74 nm (in ClCCl). In addition, the emission maximum was 529.1 nm (in N#Cc1ccccc1), 555.25 nm (in O), 547.35 nm (in OCC(O)CO) and 519.48 nm (in c1ccccc1).

`Cc1cc(C)c(B(c2cc3ccc4cccc5ccc(c2)c3c45)c2c(C)cc(C)cc2C)c(C)c1`: the emission maximum (in Cc1ccccc1) amounted to 434 nm.

Take `Cc1ccc(-n2c(-c3ccccc3NS(=O)(=O)c3ccc(C)cc3)nc3c4ccccc4c4ccccc4c32)cc1`: the emission maximum (in Cc1ccccc1) came to 365 nm.

On to `C(=C1c2ccccc2CCc2ccccc21)c1ccc(C=C2c3ccccc3CCc3ccccc32)cc1`, for which the emission maximum (in C1CCOC1) was 406 nm.

`C(=C\c1ccncn1)/c1ccc(N(c2ccccc2)c2ccc(/C=C/c3ccncn3)cc2)cc1` registered an emission maximum (in ClCCl) of 555 nm.

Consider `CC(C)(C)c1ccc(-c2ccc(-c3c4c(nc5ccccc35)-c3cc5c(cc3CC4)-c3nc4ccccc4c(-c4ccc(-c6ccc(C(C)(C)C)cc6)cc4)c3CC5)cc2)cc1`, for which the emission maximum (in ClC(Cl)Cl) was 388 nm.

As to `CCN(CC)c1ccc2cc(-c3csc(NC(C)=O)c3C#N)c(=O)oc2c1`, the emission maximum (in C1CCOC1) came out at 457 nm; the emission maximum (in CO) is 477 nm; the emission maximum (in CS(C)=O) was found to be 479 nm; the emission maximum (in Cc1ccccc1) amounted to 448 nm; the emission maximum (in ClCCl) is 463 nm.

Regarding `O=C1NC(c2ccccc2)=C/C1=C\c1ccccc1`, the emission maximum (in C1COCCO1) came to 539 nm.

`c1cc2ccc1CCCc1cc3c(cc1CCCc1ccc(c4nsnc14)CCC3)CCC2`: the emission maximum reads like this: (in C1CCCCC1) 496 nm; (in CC#N) 534 nm; (in ClC(Cl)Cl) 531 nm.

In the case of `CC[n+]1c(-c2ccccc2)c2cc(NC(N)=O)ccc2c2ccc(N)cc21`, the emission maximum (in O) is listed as 601 nm.

Consider `c1ccc(-n2c3ccccc3c3cc(C4(c5ccc6c(c5)c5ccccc5n6-c5ccccc5)c5cc(-c6ccc7ccc8cccc9ccc6c7c89)ccc5-c5ccc(-c6ccc7ccc8cccc9ccc6c7c89)cc54)ccc32)cc1`, for which, where the note is “in ClCCl”, the emission maximum was 423 nm.

The compound `Cc1cc2c3ccccc3[nH]c2c2[nH]c3ccccc3c12` registered an emission maximum (in ClCCl) of 371 nm.

Regarding `CC1(C)c2ccccc2N(c2ccc3c(c2)Oc2ccccc2S3(=O)=O)c2ccccc21`, the emission maximum (in Cc1ccccc1) was found to be 451 nm and the emission maximum under setting [1] was found to be 458 nm.

In turn, `COC(=O)[C@H](Cc1ccccc1)Nc1c(C(C)=O)c(=O)oc2cc(N(C)C)ccc12` registered an emission maximum (in ClCCl) of 449 nm.

As for `COc1ccc(C#Cc2ncc(-c3ccccc3)o2)cc1OC`, the emission maximum (in ClCCl) was determined as 390 nm.

Turning to `Cc1n[nH]c2c1C(c1ccc([N+](=O)[O-])cc1)C(C#N)=C(N)O2` (stereo not given), the emission maximum by setting is: (in C1CCOC1) 393 nm; (in C1COCCO1) 390 nm; (in CC#N) 407 nm; (in CCCCO) 410 nm; (in CCCO) 411 nm; (in CCO) 414 nm. Moreover, the emission maximum turned out to be 396 nm (in CCOC(C)=O); 405 nm (in CN(C)C=O); 417 nm (in CO); 404 nm (in CS(C)=O); 387 nm (in Cc1ccccc1); 402 nm (in ClCCl).

As to `COc1ccc(-c2cc(B(c3c(C)cc(C)cc3C)c3c(C)cc(C)cc3C)c(-c3sc(-c4ccc(OC)cc4)cc3P(=O)(c3ccccc3)c3ccccc3)s2)cc1`, the emission maximum (in CO) is on record as 586 nm.

`COc1cc2c(cc1OC)C1=C[C@H](c3ccc(C)cc3)C3(C(C#N)=C(C#N)N1CC2)c1ccccc1-c1ccccc13` showed an emission maximum (in ClCCl) of 403 nm.

The compound `Cc1ccc2c(c1)n(C)c(-c1ccc(-c3ccc(-c4ccc(-c5n(C)c6cc(C)ccc6[n+]5C)cc4)cc3)cc1)[n+]2C` came in with an emission maximum (in O) of 397 nm.

On to `CCCC1(CCC)c2cc(-c3ccc(-c4ccccc4)cc3)ccc2-c2ccc(-c3ccc4c(c3)C(CCC)(CCC)c3cc(-c5ccc(-c6ccccc6)cc5)ccc3-4)cc21`, for which the emission maximum (in Cc1ccccc1) came out at 402 nm.

Take `COc1ccc(-c2nc(/C(C#N)=C/c3ccc(Cl)cc3)sc2-c2ccc(OC)cc2)cc1`: the emission maximum (in CC#N) is on record as 553 nm.

As to `CCCCCCOc1cc(N(CC)CC)ccc1/C=C/C(=C(C#N)C#N)c1ccc(N(c2ccccc2)c2ccccc2)cc1`, the emission maximum (in ClCCl) was determined as 595 nm.

For the setting “in CO”, `c1ccc(N(c2ccccc2)c2ccc(-c3cnc(-c4ccc(N(c5ccccc5)c5ccccc5)cc4)s3)cc2)cc1` had an emission maximum of 488 nm.

For `C[Si]1(c2ccccc2)C(c2ccc(-n3c4ccccc4c4ccccc43)cc2)=C(c2ccccc2)C(c2ccccc2)=C1c1ccc(-n2c3ccccc3c3ccccc32)cc1`, the emission maximum (in C1CCOC1) came out at 520 nm.

In the case of `Cc1c(C)c(N2c3ccccc3Oc3ccccc32)c(C)c(C)c1B(c1c(C)c(C)c(N2c3ccccc3Oc3ccccc32)c(C)c1C)c1c(C)c(C)c(N2c3ccccc3Oc3ccccc32)c(C)c1C`, where the note is “in CC(C)(C)c1ccc(-n2c3ccc([Si](c4ccccc4)(c4ccccc4)c4ccccc4)cc3c3cc([Si](c4ccccc4)(c4ccccc4)c4ccccc4)ccc32)cc1”, the emission maximum was 509 nm.

Turning to `CN(C)CCCN1c2ccccc2Sc2ccc(Cl)cc21`, the emission maximum by setting is: (in CC#N) 451 nm; (in CO) 449 nm; (in O) 453 nm.

On to `O=c1c2cc(C#Cc3ccc(Cl)cc3)ccc2nc2ccc(C#Cc3ccc(Cl)cc3)cn12`, for which the emission maximum (in ClCCl) amounted to 478 nm.

As for `C1=Cc2ccc3ccccc3c2NB1c1ccccc1`, the emission maximum (in C1CCCCC1) is reported as 383 nm.

Compound `O=S1(=O)C2=C(c3ccccc31)C1(c3ccccc32)c2ccccc2-c2sc3ccccc3c21` (stereo not given) showed an emission maximum (in ClCCl) of 459 nm.

Take `Cc1ccc2nc3cc4c(cc3c(-c3ccccc3)c2c1)[Si](C)(C)O[Si]4(C)C`: where the note is “in ClCCl”, the emission maximum was found to be 504 nm.

Turning to `N#Cc1c(N2CCCC2)cc(-c2ccccc2)c2c1-c1cccc3cccc-2c13`, the emission maximum (in O) worked out at 550 nm.

As to `CCCCCCCCOc1ccc(-c2c3c4n(c(-c5ccc(OCCCCCCCC)cc5)c3c3n2[B-](c2ccccc2)(c2ccccc2)[n+]2c(ccc5cc(C(C)(C)C)ccc52)C=3C#N)[B-](c2ccccc2)(c2ccccc2)[n+]2c(ccc3cc(C(C)(C)C)ccc32)C=4C#N)cc1`, under “in ClC(Cl)Cl”, the emission maximum is listed as 831 nm.

On to `Cc1cc(-c2ccc(-c3nc4ccccc4[nH]3)cc2)c(C)cc1-c1ccc(-c2nc3ccccc3[nH]2)cc1`, for which the emission maximum (in CN(C)C=O) was found to be 401 nm.

For `Nc1ccc(C#Cc2ccc3ccc4ccc(C#Cc5ccc(NS(=O)(=O)c6ccc([N+](=O)[O-])cc6[N+](=O)[O-])cc5)c5ccc2c3c45)cc1`, the emission maximum (in CO) is listed as 552 nm.

For `c1ccc(N(c2ccccc2)c2ccc(-n3ccc4cc(-c5ccc6c(c5)C(c5ccccc5)(c5ccccc5)c5ccccc5-6)ccc43)cc2)cc1`, under “in ClCCl”, the emission maximum amounted to 380 nm.

As to `Oc1c(-c2cccs2)cccc1-c1nc2ccccc2s1`, the emission maximum runs as follows: (in CCO) 585 nm; (in ClCCl) 585 nm; (in O) 587 nm.

`CCCCCCc1ccc(-n2c3c4cccc(OC)c4nc(-c4ccc(OC)cc4)c3c3c2c2c(-c4ccc(OC)cc4)nc4c(OC)cccc4c2n3-c2ccc(CCCCCC)cc2)cc1` gave an emission maximum (in ClC(Cl)Cl) of 453 nm.

Compound `CCOC(=O)/N=c1/oc2cc(OC)ccc2cc1C#N` showed an emission maximum (in ClCCl) of 434 nm.

`CCCC1=Cc2nc1ccc1[nH]c(cc1CCC)c1nc(c(NC(=O)CCCC(=O)OC)cc3[nH]c2cc3CCC)C(CCC)=C1` returned an emission maximum (in Cc1ccccc1) of 680 nm.

The compound `CC(C)(C)c1ccc2c(c1)c1cc(C(C)(C)C)ccc1n2-c1cccc(-c2nc(-c3cccc(P(=O)(c4ccccc4)c4ccccc4)c3)nc(-c3cccc(P(=O)(c4ccccc4)c4ccccc4)c3)n2)c1` registered an emission maximum (in C1CCOC1) of 511.91 nm; an emission maximum (in CC#N) of 581.72 nm; an emission maximum (in CC(C)=O) of 554.6 nm; an emission maximum (in CN(C)C=O) of 567.81 nm; an emission maximum (in Cc1ccccc1) of 480.78 nm; an emission maximum (in ClC(Cl)Cl) of 512.5 nm. For the same compound, the emission maximum was determined as 535.02 nm (in ClCCl) and 484 nm under setting [1].

On to `CCN(CC)c1ccc2cc(-c3nc4ccccc4s3)c(=O)oc2c1`, for which the emission maximum was 462 nm (in C1CCCCC1); 462 nm (in CC1CCCCC1); 501 nm and 506.6 nm (in CC#N); 461.6 nm (in CCC(C)CC); 463 nm (in CCCCCC); 505 nm (in CCO). In addition, the emission maximum (in CCOC(C)=O) is 492.8 nm.

For the compound `Cc1c2c(c(C)c3ccccc13)-c1c-2ccc2nc3ccccc3nc12`, the emission maximum (in ClC(Cl)Cl) turned out to be 648 nm.

Consider `N#Cc1cccc(-c2pc3ccccc3s2)c1` (stereo not given), for which the emission maximum (in CC#N) was 432 nm.
